Results as given in US10975037B2 (priority 2018, dated 2021).
Like-named read-outs stand apart in the source and are kept apart here.

What was measured:
[1] = molecular target: human RORγt ligand binding domain (RORγt LBD) (Homo sapiens (Human), UniProt P51449); assay: RORγt ThermoFluor® assay (thermal shift binding)
In short: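 Thermal shift with 0.065 mg/mL RORγt LBD and 60 μM 1,8-ANS in 100 mM Hepes pH 7.0, 10 mM NaCl, 2.5 mM GSH, 0.002% Tween-20.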

full-length human RORγt = full-length human RORγt (Homo sapiens (Human), UniProt P51449); assay: RORγt (full-length human) reporter assay, conditions A or B, HEK293T cells; format: cell-based; conditions: for IC50: RORγt (FL) Reporter Assay A or B, IC50, HEK293T cells; for inhibition at 2 µM: 2 μM compound concentration
In short: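 Dual-luciferase read-out was taken after an overnight (16–20 h) compound exposure. Firefly data were scaled between DMSO-only and saturating reference compound, Renilla-normalized, then plotted against concentration for IC50.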

[2] = read-out: ThermoFluor® Assay, Kd
[3] = HEK-293T, read-out: RORγt (FL) Reporter Assay A or B, % inhibition

human RORγt ligand binding domain (RORγt LBD), sequence (P51449 other isoform, or with tags, fused parts or gaps): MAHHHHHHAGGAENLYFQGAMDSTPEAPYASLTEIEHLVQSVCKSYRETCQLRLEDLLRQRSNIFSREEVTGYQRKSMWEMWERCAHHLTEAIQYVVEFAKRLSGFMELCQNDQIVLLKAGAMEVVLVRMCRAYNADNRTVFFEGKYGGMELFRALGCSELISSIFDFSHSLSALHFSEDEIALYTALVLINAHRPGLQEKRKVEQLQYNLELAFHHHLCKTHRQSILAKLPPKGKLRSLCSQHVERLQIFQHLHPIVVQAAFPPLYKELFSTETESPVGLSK
full-length human RORγt, sequence (P51449 other isoform, or with tags, fused parts or gaps): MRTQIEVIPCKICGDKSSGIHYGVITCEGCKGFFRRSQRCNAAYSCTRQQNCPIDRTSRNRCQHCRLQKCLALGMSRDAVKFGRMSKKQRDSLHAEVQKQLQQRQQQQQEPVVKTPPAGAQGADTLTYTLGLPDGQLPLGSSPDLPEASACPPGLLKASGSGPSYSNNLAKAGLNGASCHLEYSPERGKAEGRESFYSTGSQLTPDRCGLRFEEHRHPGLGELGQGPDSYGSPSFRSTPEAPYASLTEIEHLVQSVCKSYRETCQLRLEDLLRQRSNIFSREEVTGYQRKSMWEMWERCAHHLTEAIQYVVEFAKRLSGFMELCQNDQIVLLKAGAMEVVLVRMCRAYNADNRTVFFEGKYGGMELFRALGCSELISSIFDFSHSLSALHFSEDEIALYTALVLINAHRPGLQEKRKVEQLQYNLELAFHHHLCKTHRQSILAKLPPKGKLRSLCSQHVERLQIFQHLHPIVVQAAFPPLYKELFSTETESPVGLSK

Row | SMILES | Kd ([1]; ThermoFluor® Assay, Kd) | IC50 (full-length human RORγt) | Kd [1, 2] | inhibition at 2 µM (full-length human RORγt; [3]) | other results
1 | COCCn1nc(C(=O)NC[C@H]2CC[C@H](S(C)(=O)=O)CC2)c(Cl)c1-c1ccc(CC(C)(C)C(F)(F)F)cc1OC [Example 185, 4-Chloro-5-(2-methoxy-4-(3,3,3-trifluoro-2,2-dimethylpropyl)phenyl)-1-(2-methoxyethyl)-N-(((1r,4r)-4-(methylsulfonyl)cyclohexyl)methyl)-1H-pyrazole-3-carboxamide] |  | 30 nM | 2.4 nM | 92% | 
2 | CCn1nc(C(=O)NC[C@]2(O)CC[C@@H](S(C)(=O)=O)CC2)c(Cl)c1-c1ccc(N[C@H](C)C(F)(F)F)cc1OC [Example 24, 4-Chloro-1-ethyl-N-(((1s,4S)-1-hydroxy-4-(methylsulfonyl)cyclohexyl)methyl)-5-(2-methoxy-4-(((R)-1,1,1-trifluoropropan-2-yl)amino)phenyl)-1H-pyrazole-3-carboxamide] |  | 52 nM | 21 nM | 104% | 
3 | CCn1nc(C(=O)NC[C@H]2CC[C@H](S(C)(=O)=O)CC2)c(Cl)c1-c1ccc(N[C@H](C)C(F)(F)F)cc1C(F)(F)F [Example 172, 4-Chloro-1-ethyl-N-(((1r,4R)-4-(methylsulfonyl)cyclohexyl)methyl)-5-(2-(trifluoromethyl)-4-(((R)-1,1,1-trifluoropropan-2-yl)amino)phenyl)-1H-pyrazole-3-carboxamide] |  | 28 nM | 3.8 nM | 100% | 
4 | CCn1nc(C(=O)NC[C@H]2CC[C@H](S(C)(=O)=O)CC2)c(Cl)c1-c1ccc(CCC(F)(F)F)cc1F [Example 179, 4-Chloro-1-ethyl-5-(2-fluoro-4-(3,3,3-trifluoropropyl)phenyl)-N-(((1r,4r)-4-(methylsulfonyl)cyclohexyl)methyl)-1H-pyrazole-3-carboxamide] |  | 69 nM | 15 nM | 52% | 
5 | Cn1nc(C(=O)NC[C@@]2(O)CC[C@H](S(C)(=O)=O)C[C@@H]2O)c(Cl)c1-c1ccc(CC(C)(C)C(F)(F)F)cc1OC(F)F (relative stereo) [Example 153, 4-Chloro-5-(2-(difluoromethoxy)-4-(3,3,3-trifluoro-2,2-dimethylpropyl)phenyl)-N-(((1S*,2S*,4S*)-1,2-dihydroxy-4-(methylsulfonyl)cyclohexyl)methyl)-1-methyl-1H-pyrazole-3-carboxamide] | 9 nM | 49 nM |  |  | inhibition at 3 µM (full-length human RORγt; HEK-293T, 3 μM compound concentration (footnote *), read-out: RORγt (FL) Reporter Assay A or B, % inhibition): 85%
6 | CCn1nc(C(=O)NC[C@]2(C#N)CC[C@H](S(C)(=O)=O)CC2)c(Cl)c1-c1ccc(N[C@H](C)C(F)(F)F)cc1OC [Example 33, 4-Chloro-N-(((1r,4R)-1-cyano-4-(methylsulfonyl)cyclohexyl)methyl)-1-ethyl-5-(2-methoxy-4-(((R)-1,1,1-trifluoropropan-2-yl)amino)phenyl)-1H-pyrazole-3-carboxamide] |  | 1100 nM | 450 nM |  | inhibition at 6 µM (full-length human RORγt; HEK-293T, read-out: RORγt (FL) Reporter Assay A or B, % inhibition @ 6 μM, 6 μM compound concentration): 88%
7 | CCOC(=O)[C@]1(CNC(=O)c2nn(CC)c(-c3ccc(CC(C)(C)C(F)(F)F)cc3OC(F)F)c2Cl)CC[C@@H](S(C)(=O)=O)CC1 [Example 120, Ethyl (1r*,4r*)-1-((4-chloro-5-(2-(difluoromethoxy)-4-(3,3,3-trifluoro-2,2-dimethylpropyl)phenyl)-1-ethyl-1H-pyrazole-3-carboxamido)methyl)-4-(methylsulfonyl)cyclohexane-1-carboxylate] | 10 nM | 28 nM |  |  | inhibition at […] (full-length human RORγt; HEK-293T, 0.22 μM compound concentration (footnote *******), read-out: RORγt (FL) Reporter Assay A or B, % inhibition): 92%
8 | CCn1nc(C(=O)NC[C@H]2CC[C@H](S(C)(=O)=O)CC2)c(Cl)c1-c1ccc(OC(C)C(F)(F)F)cc1OC (stereo partly drawn) [Example 212, 4-Chloro-1-ethyl-5-(2-methoxy-4-((1,1,1-trifluoropropan-2-yl)oxy)phenyl)-N-(((1r,4r)-4-(methylsulfonyl)cyclohexyl)methyl)-1H-pyrazole-3-carboxamide] |  | 33 nM | 7.4 nM | 81% | 

The next compounds have a lower IC50 (full-length human RORγt) than those just listed; values first:

Row | Kd ([1]; ThermoFluor® Assay, Kd) | IC50 (full-length human RORγt) | Kd [1, 2] | inhibition at 2 µM (full-length human RORγt; [3]) | SMILES | other results
9 | 0.46 nM | 11 nM |  |  | CCn1nc(C(=O)NC[C@H]2CC[C@H](S(C)(=O)=O)CC2)c(Cl)c1-c1ccc(C[C@@H](C)C(F)(F)F)cc1OC(F)F (single isomer, unassigned) [Example 135, 4-Chloro-5-(2-(difluoromethoxy)-4-((R*)-3,3,3-trifluoro-2-methylpropyl)phenyl)-1-ethyl-N-(((1r,4R)-4-(methylsulfonyl)cyclohexyl)methyl)-1H-pyrazole-3-carboxamide] | inhibition at […] (full-length human RORγt; HEK-293T, 0.33 μM compound concentration (footnote *****), read-out: RORγt (FL) Reporter Assay A or B, % inhibition): 83%
10 |  | 10 nM | 0.7 nM |  | CCn1nc(C(=O)NC[C@H]2CC[C@H](S(C)(=O)=O)CC2)c(Cl)c1-c1ccc(CC(C(F)(F)F)C(F)(F)F)cc1OC [Example 84, 4-Chloro-1-ethyl-5-(2-methoxy-4-(3,3,3-trifluoro-2-(trifluoromethyl)propyl)phenyl)-N-(((1r,4r)-4-(methylsulfonyl)cyclohexyl)methyl)-1H-pyrazole-3-carboxamide] | inhibition at 0.67 µM (full-length human RORγt; [3]): 87%
11 | 0.19 nM | 4.8 nM |  |  | CCn1nc(C(=O)NC[C@@H]2CC[C@@H](S(C)(=O)=O)CO2)c(Cl)c1-c1ccc(CC(C)(C)C(F)(F)F)cc1OC(F)F (single isomer, unassigned) [Example 16, 4-Chloro-5-(2-(difluoromethoxy)-4-(3,3,3-trifluoro-2,2-dimethylpropyl)phenyl)-1-ethyl-N-(((2S*,5R*)-5-(methylsulfonyl)tetrahydro-2H-pyran-2-yl)methyl)-1H-pyrazole-3-carboxamide] | inhibition at 0.67 µM (full-length human RORγt; HEK-293T, 0.67 μM compound concentration (footnote ****), read-out: RORγt (FL) Reporter Assay A or B, % inhibition): 105%
12 |  | 23 nM | 2.5 nM | 103% | COc1cc(N[C@H](C)C(F)(F)F)ccc1-c1c(Cl)c(C(=O)NC[C@H]2CC[C@H](S(C)(=O)=O)CC2)nn1CC(C)C [Example 28, 4-Chloro-1-isobutyl-5-(2-methoxy-4-(((R)-1,1,1-trifluoropropan-2-yl)amino)phenyl)-N-(((1r,4R)-4-(methylsulfonyl)cyclohexyl)methyl)-1H-pyrazole-3-carboxamide] | 
13 |  | 20 nM | 5.4 nM | 101% | CCn1nc(C(=O)NC[C@H]2CC[C@H](S(C)(=O)=O)CC2)c(Cl)c1-c1c(F)cc(N[C@H](C)C(F)(F)F)cc1F [Example 196, 4-Chloro-5-(2,6-difluoro-4-(((R)-1,1,1-trifluoropropan-2-yl)amino)phenyl)-1-ethyl-N-(((1r,4R)-4-(methylsulfonyl)cyclohexyl)methyl)-1H-pyrazole-3-carboxamide] | 
14 |  | 3 nM | 0.14 nM |  | CCn1nc(C(=O)NC[C@H]2CC[C@H](S(C)(=O)=O)CC2)c(C)c1-c1ccc(CC(C(F)(F)F)C(F)(F)F)cc1OC(F)F [Example 87, 5-(2-(Difluoromethoxy)-4-(3,3,3-trifluoro-2-(trifluoromethyl)propyl)phenyl)-1-ethyl-4-methyl-N-(((1r,4r)-4-(methylsulfonyl)cyclohexyl)methyl)-1H-pyrazole-3-carboxamide] | inhibition at 0.07 µM (full-length human RORγt; HEK-293T, 0.07 μM compound concentration (footnote *********), read-out: RORγt (FL) Reporter Assay A or B, % inhibition): 100%
15 | 0.71 nM | 13 nM |  | 99% | CCCn1nc(C(=O)NC[C@]2(O)CC[C@@H](S(C)(=O)=O)CC2)c(Cl)c1-c1ccc(C[C@H](C)C(F)(F)F)cc1OC (single isomer, unassigned) [Example 40, 4-Chloro-N-(((1s,4R)-1-hydroxy-4-(methylsulfonyl)cyclohexyl)methyl)-5-(2-methoxy-4-((S*)-3,3,3-trifluoro-2-methylpropyl)phenyl)-1-propyl-1H-pyrazole-3-carboxamide] | 
16 | 0.58 nM | 2.7 nM |  |  | CCn1nc(C(=O)NC[C@H]2CC[C@H](S(N)(=O)=O)CC2)c(Cl)c1-c1ccc(C[C@@H](C)C(F)(F)F)cc1OC(F)F (single isomer, unassigned) [Example 139, 4-Chloro-5-(2-(difluoromethoxy)-4-((R*)-3,3,3-trifluoro-2-methylpropyl)phenyl)-1-ethyl-N-(((1r,4R)-4-sulfamoylcyclohexyl)methyl)-1H-pyrazole-3-carboxamide] | inhibition at 1 µM (full-length human RORγt; HEK-293T, 1 μM compound concentration (footnote ***), read-out: RORγt (FL) Reporter Assay A or B, % inhibition): 122%
17 |  | 21 nM | 1.2 nM | 104% | CCn1nc(C(=O)NC[C@H]2CC[C@H](S(C)(=O)=O)CC2)c(Cl)c1-c1ccc(N[C@H](C)C(F)(F)F)cc1OC(F)(F)F [Example 190, 4-Chloro-1-ethyl-N-(((1r,4R)-4-(methylsulfonyl)cyclohexyl)methyl)-5-(2-(trifluoromethoxy)-4-(((R)-1,1,1-trifluoropropan-2-yl)amino)phenyl)-1H-pyrazole-3-carboxamide] | 
18 |  | 13 nM | 2.5 nM | 105% | CC(C)(O)Cn1nc(C(=O)NC[C@H]2CC[C@H](S(C)(=O)=O)CC2)c(Cl)c1-c1ccc(CC(C)(C)C(F)(F)F)cc1OC(F)F [Example 145, 4-Chloro-5-(2-(difluoromethoxy)-4-(3,3,3-trifluoro-2,2-dimethylpropyl)phenyl)-1-(2-hydroxy-2-methylpropyl)-N-(((1r,4r)-4-(methylsulfonyl)cyclohexyl)methyl)-1H-pyrazole-3-carboxamide] | 
